Measurements as given in US9242984B2, “Pyrazolyl derivatives as Syk inhibitors” (Merck Sharp & Dohme Corp., priority 2012, dated 2016).

Target: T1, recombinant human Syk (GST-hSyk fusion protein) (Homo sapiens, UniProt P43405)
T1 construct: purchased Carna Biosciences 08-176
Experiment: Homogeneous Time-Resolved Fluorescence (HTRF) assay for the recombinant human Syk enzyme
Type: biochemical
Conditions: 10-dose titration, 25 μM ATP; read-out: rhSYK IC50
In short: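 IC50 came from a four-parameter fit over ten doses, 10 μM to 0.508 nM, with HTRF read-out (Eu-anti-pTyr antibody, SA-APC, EDTA stop, 30 min). The enzyme, 5 pM GST-hSyk, met compound for 10 min, then phosphorylated 250 nM biotin-peptide with 25 μM ATP and 5 mM Mg for 45 min at room temperature, pH 7.5.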

IC50 [nM]	Compound
1.7	Cc1cc(Nc2cc(C(F)(F)F)ccn2)nc(-c2cnn(CC(C)(O)CC#N)c2)c1 (single isomer, unassigned) [Example 20.1, (R or S)-3-Hydroxy-3-methyl-4-(4-(4-methyl-6-((4-(trifluoromethyl)pyridin-2-yl)amino)pyridin-2-yl)-1H-pyrazol-1-yl)butanenitrile]
3.7	Cc1cc(Nc2nccc(C(F)F)n2)cc(-c2cnn(C3CCCC(O)C3O)c2)c1 (single isomer, unassigned) [Example 10.4, 3-[4-(3-{[4-(difluoromethyl)pyrimidin-2-yl]amino}-5-methylphenyl)-1H-pyrazol-1-yl]cyclohexane-1,2-diol]

Same assay, conditions: IC50 class; 10-dose titration, 25 μM ATP; read-out: rhSYK Activity

IC50 [nM]	Compound
≤ 100	Cc1cc(Nc2nccc(C(F)F)n2)cc(-c2cnn(CC(O)COCC(F)(F)F)c2)c1 (centres unmarked) [Example 5.31, 1-[4-(3-{[4-(difluoromethyl)pyrimidin-2-yl]amino}-5-methylphenyl)-1H-pyrazol-1-yl]-3-(2,2,2-trifluoroethoxy)propan-2-ol]
≤ 100	C[C@@](O)(CO)Cn1cc(-c2cccc(Nc3nccc(C(F)F)n3)c2)cn1 [Example 2.92, (2S)-3-[4-(3-{[4-(difluoromethyl)pyrimidin-2-yl]amino}phenyl)-1H-pyrazol-1-yl]-2-methylpropane-1,2-diol]
≤ 100	O=C(O)CCn1cc(-c2cccc(Nc3nccc(C(F)(F)F)n3)c2)cn1 [Example 2.5, 3-[4-(3-{[4-(trifluoro-methyl)pyrimidin-2-yl]amino}phenyl)-1H-pyrazol-1-yl]-propanoic acid]
≤ 100	Cc1cc(Nc2cc(C(F)(F)F)ccn2)nc(-c2cnn(CC(C)(O)CC#N)c2)c1 (single isomer, unassigned) [Example 20.1, (R or S)-3-Hydroxy-3-methyl-4-(4-(4-methyl-6-((4-(trifluoromethyl)pyridin-2-yl)amino)pyridin-2-yl)-1H-pyrazol-1-yl)butanenitrile]
≤ 100	Cc1cc(Nc2nccc(C(F)(F)F)n2)cc(-c2cnn(C3CCOC3=O)c2)c1 (centres unmarked) [Example 3.17, 3-[4-(3-methyl-5-{[4-(trifluoromethyl)pyrimidin-2-yl]amino}-phenyl)-1H-pyrazol-1-yl]dihydrofuran-2(3h)-one]
≤ 100	Cc1cc(Nc2nccc(C(F)F)n2)cc(-c2cnn(CC(C)(C)NS(=O)(=O)C3CC3)c2)c1 [Example 27.5, N-{2-[4-(3-{[4-(difluoromethyl)pyrimidin-2-yl]amino}-5-methylphenyl)-1H-pyrazol-1-yl]-1,1-dimethylethyl}cyclopropanesulfonamide]
100 to 1000	Cc1cc(Nc2nccc(C)n2)cc(-c2cnn(C(C)(C)C(N)=O)c2)c1 [Example 8.10, 2-methyl-2-(4-{3-methyl-5-[(4-methyl-pyrimidin-2-yl)amino]-phenyl}-1H-pyrazol-1-yl)propanamide]
≤ 100	Cc1cc(Nc2ncc(Cl)c(C)n2)cc(-c2cnn(CCC(N)=O)c2)c1 [Example 2.13, 3-(4-{3-[(5-chloro-4-methylpyrimidin-2-yl)amino]-5-methylphenyl}-1H-pyrazol-1-yl)propanamide]
≤ 100	Cc1cc(Nc2nccc(C(F)(F)F)n2)cc(-c2cnn(CC(=O)NC(C)(C)C)c2)c1 [Example 3.8, N-tert-butyl-2-[4-(3-methyl-5-{[4-(trifluoromethyl)pyrimidin-2-yl]amino}-phenyl)-1H-pyrazol-1-yl]acetamide]
≤ 100	Cc1cc(Nc2nccc(C(F)(F)F)n2)cc(-c2cnn(CC(O)COC(C)C)c2)c1 (centres unmarked) [Example 5.7, 1-(1-methylethoxy)-3-[4-(3-methyl-5-{[4-(trifluoro-methyl)pyrimidin-2-yl]amino}-phenyl)-1H-pyrazol-1-yl]propan-2-ol]
≤ 100	Cc1cc(Nc2nccc(C(F)F)n2)cc(-c2cnn(CC3(O)CCC3)c2)c1 [Example 5.41, 1-{[4-(3-{[4-(difluoromethyl)pyrimidin-2-yl]amino}-5-methylphenyl)-1H-pyrazol-1-yl]methyl}cyclobutanol]
≤ 100	Cc1cc(Nc2nccc(C(F)(F)F)n2)cc(-c2cnn(CC(C)(O)CC#N)c2)c1 (centres unmarked) [Example 20.3, 3-hydroxy-3-methyl-4-[4-(3-methyl-5-{[4-(trifluoromethyl)pyrimidin-2-yl]amino}phenyl)-1H-pyrazol-1-yl]butanenitrile]
≤ 100	Cc1cc(Nc2nccc(C(F)(F)F)n2)cc(-c2cnn(CC(C)(C)O)c2)c1 [Example 5.12, 2-methyl-1-[4-(3-methyl-5-{[4-(trifluorometh-yl)pyrimidin-2-yl]amino}-phenyl)-1H-pyrazol-1-yl]propan-2-ol]
≤ 100	Cc1cc(Nc2nccc(C(F)(F)F)n2)cc(-c2cnn(C[C@H](C)CO)c2)c1 [Example 3.5, (2s)-2-methyl-3-[4-(3-methyl-5-{[4-(trifluoromethyl)-pyrimidin-2-yl]amino}-phenyl)-1H-pyrazol-1-yl]-propan-1-ol]
≤ 100	Cc1cc(Nc2nccc(C(F)(F)F)n2)cc(-c2cnn(CC(C)(O)C(N)=O)c2)c1 (centres unmarked) [Example 8.23, 2-hydroxy-2-methyl-3-[4-(3-methyl-5-{[4-(trifluoromethyl)-pyrimidin-2-yl]amino}-phenyl)-1H-pyrazol-1-yl]propanamide]
100 to 1000	CCOC(=O)CCn1cc(-c2cc(C)cc(Nc3cc(C)ccn3)n2)cn1 [Example 1.26, ethyl 3-(4-{4-methyl-6-[(4-methylpyridin-2-yl)amino]pyridin-2-yl}-1H-pyrazol-1-yl)propanoate]

IC50 [nM]	Compound
≤ 100	Cc1cc(Nc2nccc(C(F)F)n2)cc(-c2cnn(CCN)c2)c1 [Example 2.82, N-{3-[1-(2-aminoethyl)-1H-pyrazol-4-yl]-5-methylphenyl}-4-(difluoromethyl)pyrimidin-2-amine]
≤ 100	Cc1cc(Nc2nccc(C(F)(F)F)n2)cc(-c2cnn(CC3COCCC3O)c2)c1 (centres unmarked) [Example 12.12, 3-{[4-(3-methyl-5-{[4-(trifluoromethyl)pyrimi-din-2-yl]amino}phenyl)-1H-pyrazol-1-yl]methyl}-tetrahydro-2H-pyran-4-ol]
≤ 100	Cc1cc(Nc2nccc(C(F)(F)F)n2)cc(-c2cnn(CCS(C)(=O)=O)c2)c1 [Example 3.48, N-(3-methyl-5-{1-[2-(methylsulfonyl)ethyl]-1H-pyrazol-4-yl}phenyl)-4-(trifluoromethyl)pyrimidin-2-amine]
≤ 100	Cc1cc(Nc2nccc(C(F)F)n2)cc(-c2cnn(CC3CC(=O)NC3C)c2)c1 (centres unmarked) [Example 2.76, 4-{[4-(3-{[4-(difluoromethyl)pyrimidin-2-yl]amino}-5-methylphenyl)-1H-pyrazol-1-yl]methyl}-5-methylpyrrolidin-2-one]
≤ 100	Cc1cc(Nc2nccc(C(C)(F)F)n2)cc(-c2cnn(CC(C)(O)CC#N)c2)c1 (centres unmarked) [Example 20.10, 4-[4-(3-{[4-(1,1-difluoroethyl)pyrimidin-2-yl]amino}-5-methylphenyl)-1H-pyrazol-1-yl]-3-hydroxy-3-methylbutanenitrile]
≤ 100	COc1nc(Nc2cc(C)cc(-c3cnn(C[C@H](O)C(=O)O)c3)c2)ncc1Cl [Example 11.6, (2S)-3-(4-{3-[(5-chloro-4-methoxy-pyrimidin-2-yl)-amino]-5-methyl-phenyl}-1H-pyrazol-1-yl)-2-hydroxy-propanoic acid]
≤ 100	Cc1cc(Nc2nccc(C(F)F)n2)cc(-c2cnn(CC(O)CN3CCCC3=O)c2)c1 (centres unmarked) [Example 5.33, 1-{3-[4-(3-{[4-(difluoromethyl)pyrimidin-2-yl]amino}-5-methylphenyl)-1H-pyrazol-1-yl]-2-hydroxypropyl}pyrrolidin-2-one]
100 to 1000	COc1ccc(OCC(O)Cn2cc(-c3cc(C)cc(Nc4nccc(C(F)(F)F)n4)c3)cn2)cc1 (centres unmarked) [Example 5.11, 1-(4-methoxy-phenoxy)-3-[4-(3-methyl-5-{[4-(trifluoromethyl)-pyrimidin-2-yl]amino}phenyl)-1H-pyrazol-1-yl]propan-2-ol]
100 to 1000	Cc1cc(Nc2nccc(C(F)(F)F)n2)cc(-c2c(C)n[nH]c2C)c1 [Example 2.38, N-[3-(3,5-dimethyl-1H-pyrazol-4-yl)-5-methylphenyl]-4-(trifluoromethyl)pyrimidin-2-amine]
≤ 100	CNC(=O)[C@@H](O)Cn1cc(-c2cc(C)cc(Nc3nccc(C(F)(F)F)n3)c2)cn1 [Example 6.11, (2S)-2-hydroxy-N-methyl-3-[4-(3-methyl-5-{[4-(trifluorometh-yl)pyrimidin-2-yl]amino}phenyl)-1H-pyrazol-1-yl]propanamide]
≤ 100	Cc1cc(Nc2nccc(C(F)(F)F)n2)cc(-c2cnn(CC(C)(O)C(N)=O)c2)c1 (racemic) [Example 8.11, 2-hydroxy-2-methyl-3-[4-(3-methyl-5-{[4-(trifluorometh-yl)pyrimidin-2-yl]amino}-phenyl)-1H-pyrazol-1-yl]propanamide]
≤ 100	Cc1cc(Nc2nccc(C(F)(F)F)n2)cc(-c2cnn(CC(O)c3ccc(C(N)=O)cc3)c2)c1 (centres unmarked) [Example 8.12, 4-{1-hydroxy-2-[4-(3-methyl-5-{[4-(trifluoromethyl)-pyrimidin-2-yl]amino}-phenyl)-1H-pyrazol-1-yl]ethyl}benzamide]
≤ 100	CCOC(=O)CCn1cc(-c2cc(C)cc(Nc3nccc(C)n3)c2)cn1 [Example 2.42, ethyl 3-(4-{3-methyl-5-[(4-methylpyrimidin-2-yl)amino]phenyl}-1H-pyrazol-1-yl)propanoate]
100 to 1000	Cc1cc(Nc2nccc(C(F)(F)F)n2)cc(-c2cn[nH]c2)n1 [Example 1.44, N-[2-methyl-6-(1H-pyrazol-4-yl)pyridin-4-yl]-4-(trifluoro-methyl)pyrimidin-2-amine]
≤ 100	Cc1cc(Nc2nccc(C(F)F)n2)cc(-c2cnn(C3CCCC(O)C3O)c2)c1 (single isomer, unassigned) [Example 10.4, 3-[4-(3-{[4-(difluoromethyl)pyrimidin-2-yl]amino}-5-methylphenyl)-1H-pyrazol-1-yl]cyclohexane-1,2-diol]
≤ 100	CCC(C(=O)OC)n1cc(-c2cc(C)cc(Nc3nccc(C(F)(F)F)n3)c2)cn1 (centres unmarked) [Example 3.28, methyl 2-[4-(3-methyl-5-{[4-(trifluoromethyl)pyrimidin-2-yl]amino}-phenyl)-1H-pyrazol-1-yl]butanoate]

Compound	IC50 [nM]
6-methyl-2-pyrazolo-[1,5-a]pyridin-3-yl-N-[4-(trifluoromethyl)-pyridin-2-yl]pyrimidin-4-amine [Example 1.42]	≤ 100
